The subject of one assay is HIV-1 (RF). Put plainly: HIV RNA assay (microplate based compound evaluation in HIV-1 infected MT-2 cells). It is filed as cell-based. As to the method: DNA Plasmids and In Vitro RNA Transcripts
Plasmid pDAB 72 containing both gag and pol sequences of BH10 (bp 113-1816) cloned into PTZ 19R was prepared according to Erickson-Viitanen et al. AIDS Research and Human Retroviruses 1989, 5, 577. The plasmid was linearized with Bam HI prior to the generation of in vitro RNA transcripts using the Riboprobe Gemini system II kit (Promega) with T7 RNA polymerase. Synthesized RNA was purified by treatment with RNase free DNAse (Promega), phenol-chloroform extraction, and ethanol precipitation. RNA transcripts were dissolved in water, and stored at -70° C. The concentration of RNA was determined from the A260.
Biotinylated capture probes were purified by HPLC after synthesis on an Applied Biosystems (Foster City, Calif.) DNA synthesizer by addition of biotin to the 5' terminal end of the oligonucleotide, using the biotinphosphoramidite reagent of Cocuzza, Tet. Lett. 1989, 30, 6287. The gag biotinylated capture probe (5-biotin-[…] 3') was complementary to nucleotides 889-912 of HXB2 and the pol biotinylated capture probe (5'-biotin --[…] 3') was complementary to nucleotides 2374-2395 of HXB2. Alkaline phosphatase conjugated oligonucleotides used as reporter probes were prepared by Syngene (San Diego, Calif.). The pol reporter probe (5' […] 3') was complementary to nucleotides 2403-2425 of HXB2. The gag reporter probe (5' […] 3') was complementary to nucleotides 950-973 of HXB2. All nucleotide positions are those of the GenBank Genetic Sequence Data Bank as accessed through the Genetics Computer Group Sequence Analysis Software Package (Devereau Nucleic Acids Research 1984, 12, 387). The reporter probes were prepared as 0.5 μM stocks in 2×SSC(0.3M NaCl, 0.03M sodium citrate), 0.05M Tris pH 8.8, 1 mg/mL BSA. The biotinylated capture probes were prepared as 100 μM stocks in water.
Streptavidin Coated Plates
Nunc-immunomodule microtiter plate strips were coated by addition of 200 μL of streptavidin (30 μg/mL, Scripps, La Jolla, Calif.) in freshly prepared 10 mM sodium carbonate (pH 9.6). Plates were incubated overnight at 4° C. Streptavidin solution was aspirated from the wells and a blocking buffer composed of phosphate buffered saline (PBS), 20 mg/mL bovine serum albumin (crystalline, nuclease and protease free, Calbiochem) and 100 mg/mL lactose (Sigma) was added to the plates for 3 hrs at room temperature. Blocking buffer was removed from the wells, which were allowed to dry overnight at room temperature and subsequently stored at 4° C. in zip lock bags with desiccant. For the majority of the compound evaluation experiments, streptavidin coated plates were obtained from Du Pont Biotechnology Systems (Boston, Mass.).
MT-2, CEM, and H9 cells were maintained in RPMI 1640 supplemented with 5% fetal calf serum (FCS), 2 mM L-glutamine and 50 μg/mL gentamycin, all from Gibco. Laboratory strains of HIV-1 (RF, MN and IIIB) were propagated in H9 cells in the same medium. Virus stocks were prepared approximately 1 month after acute infection of H9 cells by clarification of the tissue culture medium and storage of aliquots at -70° C. Infectious titers of HIV-1 (RF) stocks were 1-3×10^7 PFU (plaque forming units)/mL as measured by plaque assay on MT-2 cells (see below). Each aliquot of virus stock used for infection was thawed only once. In some cases, infected H9 cells were shifted to Dulbecco's modified Eagle's medium 3-10 days before collection of virus in order to generate virus stocks in medium with low biotin content. Clinical isolates of HIV that had been passaged once in MT-2 cells were used to infect fresh MT-2 cells in RPMI medium. Three days after infection, cells were pelleted, resuspended and culture continued in Dulbecco's modified Eagle's medium as above. Virus stocks of clinical isolates were prepared 10-15 days after infection when cytopathic effects were apparent in the culture. […]

Another assay has as its target T1, HIV-1 protease (HIV-1 M:B_HXB2R, UniProt P04585).
T1 construct: cut from Gag-Pol polyprotein
The assay can be described thus: HIV protease inhibition assay (HPLC method). Type of assay: biochemical. To be noted: pH 5.5, 30° C., 1 hr. The protocol: The Ki values in TABLE 1 were determined using the assay conditions described below under HIV Protease Inhibition Assay (HPLC Method). The Ki values are indicated as follows: +++=<10 nM; ++=10 nM to 1 μM; +=>[…].
HIV PROTEASE INHIBITION ASSAY (HPLC METHOD)
Protease: Inclusion bodies of E. coli harboring plasmid T1718R with a synthetic gene coding for a single-chain tethered dimer of HIV protease were prepared as described in Cheng et al. Proc. Natl. Acad. Sci. USA 1990, 87, 9660. Active protease was prepared as described therein by extraction with 67% acetic acid, dilution 33-fold with water, dialysis against water and then against a "refolding buffer" comprising 20 mM MES, 1 mM dithiothreitol and 10% glycerol, pH 5.5. Protease was stored as a stock preparation at 10 uM in refolding buffer.
Substrate: Peptide of the sequence aminobenzoyl-Ala-Thr-His-Gln-Val-Tyr-Phe(NO2)-Val-Arg-Lys-Ala containing p-nitrophenylalanine (Phe(NO2)), was prepared by solid phase synthesis as previously described (Cheng et al. Proc. Natl. Acad. Sci. USA 1990, 87, 9660). Stock solutions of 2 mM substrate were prepared in DMSO.
Inhibitory compounds were dissolved in sufficient DMSO to make 3 mM stock solutions. All further dilutions were prepared in "assay buffer" comprising 1M NaCl, 50 mM MES, pH 5.5, 1 mM EDTA, 1 mM DTT and 20% glycerol.
Enzyme reaction: To a 2 mL screw-cap centrifuge tube were added 50 uL protease (final concentration 0.25 nM) and 0.1 mL inhibitor compound (final concentration 0.1-12,500 nM). After 15 min preincubation at room temperature, the reaction was started by the addition of 0.05 mL substrate (final concentration 5 uM). Incubation was carried out at 30° C. for 1 hr. The reaction was stopped by addition of 1 mL of 0.1M ammonium hydroxide solution.
HPLC measurement of product formation: The product (aminobenzoyl-Ala-Thr-His-Gln-Val-Tyr) was separated from substrate on a Pharmacia MonoQ anion exchange column. The injection volume was 0.2 mL. The mobile phases comprised: solution A (20 mM tris HCl, pH 9.0, 0.02% sodium azide, 10% acetonitrile), and solution B (20 mM tris HCl, pH 9.0, 0.02% sodium azide, 0.5M ammonium formate, 10% acetonitrile). The mobile phases were pumped at 1 mL/min, with a gradient from 0 to 30% B in 5 min, 100% B for 4 min to wash the column, and a re-equilibration wash with A for 4 min. The retention time of the product was 3.6 min. Detection with a Shimadzu model RF535 fluorescence monitor was at 330 nm (excitation) and 430 nm (emission). The Ki was calculated from the formula Ki=I/(((Km+S-FA*S)/(FA*Km))-1) where I=inhibitor concentration, S=substrate concentration, FA=fractional activity=cm peak height with inhibitor/cm peak height without inhibitor and Km=Michaelis constant=20 uM.

The mark [1] stands for this setting: Human immunodeficiency virus 1, MT2, 72 h, HIV RNA assay, HIV-1 (RF) infected MT-2 cells, 3 days, 37° C., read-out: IC90.

pKi: −log10 of the molar value. In brackets after ≈: the same amount, converted by molar mass. Like-named read-outs stand apart in the source and are kept apart here.

As usually defined, the pKi is the negative decadic logarithm of the Ki, by convention in mol/L. In the case of `O=P12O[C@H]([C@@H](O)[C@@H](Cc3ccccc3)N1CC1CC1)[C@@H](Cc1ccccc1)N2CC1CC1` [Example 1F, (3-endo,4-endo,6-exo)-2,7-Bis(cyclopropylmethyl)-3,6-bis(phenylmethyl)-8-oxa-2,7-diaza-1-phosphabicyclo [3.2.1]octan-4-ol 1-oxide], the IC90 in the assay with HIV-1 (RF) (setting [1]) was in the range of 10 to 100 µg/mL (≈ 22.1 to 221 µM). On HIV-1 protease, this molecule had a pKi of 6.00 to 8.00.
With `Nc1ccn([C@H]2CC[C@@H](CO)O2)c(=O)n1` [ddC, dideoxycytidine, reference compound], the IC90 with HIV-1 (RF) (Human immunodeficiency virus 1, MT2, HIV-1 (RF), MT-2 cells, virus dilution selected to give this value, read-out: IC90 value (concentration of compound required to reduce the HIV RNA level by 90%)) worked out at 0.2 µg/mL (≈ 0.947 µM).
In the case of `O=P12O[C@H]([C@@H](O)[C@@H](Cc3ccccc3)N1Cc1ccccc1)[C@@H](Cc1ccccc1)N2Cc1ccccc1` [Example 4E, (3-endo,4-endo,6-exo)-2,3,6,7-tetrakis (phenylmethyl)-8-oxa-2,7-diaza-1-phosphabicyclo[3.2.1]octan-4-ol 1-oxide], the IC90 in the assay on HIV-1 (RF) (setting [1]) was in the range of 10 to 100 µg/mL (≈ 19.1 to 191 µM). For the same molecule, on HIV-1 protease, the pKi is 6.00 to 8.00.
As to `O=P12O[C@H]([C@@H](O)[C@@H](Cc3ccccc3)N1Cc1ccc(O)cc1)[C@@H](Cc1ccccc1)N2Cc1ccc(O)cc1` [Example 7D, (3-endo,4-endo,6-exo)-2,7-bis(4-hydroxyphenylmethyl)-3,6-bis(phenylmethyl)-8-oxa-2,7-diaza-1-phosphabicyclo[3.2.1]octan-4-ol 1-oxide], the IC90 in the assay with HIV-1 (RF) (setting [1]) was less than 10 µg/mL. Also, the pKi on HIV-1 protease is greater than 8.00.
For `O=P12O[C@H]([C@@H](O)[C@@H](Cc3ccccc3)N1Cc1cccc(CO)c1)[C@@H](Cc1ccccc1)N2Cc1cccc(CO)c1` [Example 8C, (3-endo,4-endo,6-exo)-2,7-Bis(3-(hydroxymethyl)phenylmethyl)-3,6-bis(phenylmethyl)-8-oxa-2,7-diaza-1-phosphabicyclo[3.2.1]octan-4-ol 1-oxide] the same measures were less than 10 µg/mL and greater than 8.00.
For `CNc1cccc(CN2[C@H](Cc3ccccc3)[C@H](O)[C@H]3OP2(=O)N(Cc2cccc(NC)c2)[C@@H]3Cc2ccccc2)c1` [Example 6D] the same measures were less than 10 µg/mL and 6.00 to 8.00.
For `CCCCN1[C@H](Cc2ccccc2)[C@H](O)[C@H]2OP1(=O)N(CCCC)[C@@H]2Cc1ccccc1` [Example 3C, (3-endo,4-endo,6-exo)-2,7-Bis(butyl)-3,6-bis(phenylmethyl)-8-oxa-2,7-diaza-1-phosphabicyclo[3.2.1]octan-4-ol 1-oxide] the same measures were greater than 50 µg/mL and 6.00 to 8.00.
Turning to `O=P12O[C@H]([C@@H](O)[C@@H](Cc3ccccc3)N1Cc1ccc3ccccc3c1)[C@@H](Cc1ccccc1)N2Cc1ccc2ccccc2c1` [Example 2C, (3-endo,4-endo,6-exo)-2,7-Bis(2-naphthalenylmethyl)-3,6-bis(phenylmethyl)-8-oxa-2,7-diaza-1-phosphabicyclo[3.2.1]octan-4-ol 1-oxide], the IC90 in the assay on HIV-1 (RF) (setting [1]) is greater than 50 µg/mL. Further, the pKi at HIV-1 protease was 6.00 to 8.00.

For the origin of these results see US5543517A, “Substituted bicyclic phosphoramides and derivatives thereof” (The DuPont Merck Pharmaceutical Company, priority 1994, dated 1996).
